# In patent US9113629B2, “4-amino-6-(4-substituted-phenyl)-picolinates and 6-amino-2-(4-substituted-phenyl)-pyrimidine-4-carboxylates and their use as herbicides” (DOW AGROSCIENCES LLC, priority 2013, dated 2015):
# Read-outs that look alike come from different tables or passages of the source.
# Experiments:
# [1] = tested on: Key Broadleaf Weed and Crop Species; assay: Post-emergent Test II herbicidal activity (Table 5); assay type: in vivo; details: post-emergence, 336 h, post-emergent, 14 days after application; for pest or weed control at 70 g/ha: 70 g ai/ha; for pest or weed control at 140 g/ha: 140 g ai/ha
# Method in brief: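 Visual injury ratings (0 = no injury, 100 = complete kill) were taken 14 d after treatment, relative to untreated plants. Seedlings at the first–second true leaf stage received overhead spray at 187 L/ha; the highest rate was serially diluted to ½×, ¼×, ⅛× and 1/16×.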
# [2] = tested on: Key Grass and Sedge Weeds as well as Grass Crops; assay: Post-emergent Test II herbicidal activity (Table 6); assay type: in vivo; details: post-emergence, 336 h; for pest or weed control at 70 g/ha: application rate 70 g ai/ha; for pest or weed control at 140 g/ha: application rate 140 g ai/ha
# Description: Post-emergent Test II: Seeds or nutlets of the desired test plant species were planted in Sun Gro Metro-Mix® 360 planting mixture, which typically has a pH of 6.0 to 6.8 and an organic matter content of about 30 percent, in plastic pots with a surface area of 64 square centimeters. When required to ensure good germination and healthy plants, a fungicide treatment and/or other chemical or physical treatment was applied. The plants were grown for 7-21 d in a greenhouse with an approximate 15 h photoperiod which was maintained at about 23-29° C. during the day and 22-28° C. during the night. Nutrients and water were added on a regular basis and supplemental lighting was provided with overhead metal halide 1000-Watt lamps as necessary. The plants were employed for testing when they reached the first or second true leaf stage.
# A weighed amount, determined by the highest rate to be tested, of each test compound was placed in a 25 mL glass vial and was dissolved in 4 mL of a 97:3 v/v mixture of acetone and DMSO to obtain concentrated stock solutions. […] The concentrated stock solutions obtained were diluted with 20 mL of an aqueous mixture containing acetone, water, isopropyl alcohol, DMSO. Atplus 411F crop oil concentrate, and Triton® X-155 surfactant in a 48.5:39:10:1.5:1.0:0.02 v/v ratio to obtain spray solutions containing the highest application rates. Additional application rates were obtained by serial dilution of 12 mL of the high rate solution into a solution containing 2 mL of 97:3 v/v mixture of acetone and DMSO and 10 mL of an aqueous mixture containing acetone, water, isopropyl alcohol, DMSO, Atplus 411F crop oil concentrate, and Triton X-155 surfactant in a 48.5:39:10:1.5:1.0:0.02 v/v ratio to obtain ½×, ¼×, ⅛× and 1/16× rates of the high rate. Compound requirements are based upon a 12 mL application volume at a rate of 187 liters per hectare (L/ha). Formulated compounds were applied to the plant material with an overhead Mandel track sprayer equipped with 8002E nozzles calibrated to deliver 187 L/ha over an application area of 0.503 square meters at a spray height of 18 inches (43 cm) above the average plant canopy height. Control plants were sprayed in the same manner with the solvent blank.
# The treated plants and control plants were placed in a greenhouse as described above and watered by subirrigation to prevent wash-off of the test compounds. After 14 d, the condition of the test plants as compared with that of the untreated plants was determined visually and scored on a scale of 0 to 100 percent where 0 corresponds to no injury and 100 corresponds to complete kill.
# [3] = ABUTH: velvetleaf (Abutilon theophrasti), read-out: Visual Growth Reduction (%) 14 Days After Application ABUTH
# [4] = BRSNN: oilseed-rape, canola (Brassica napus), read-out: Visual Growth Reduction (%) 14 Days After Application BRSNN
# [5] = CHEAL: lambsquarters (Chenopodium album), read-out: Visual Growth Reduction (%) 14 Days After Application CHEAL
# [6] = EPHHL: wild poinsettia (Euphorbia heterophylla), read-out: Visual Growth Reduction (%) 14 Days After Application EPHHL
# [7] = HELAN: sunflower (Helianthus annuus), read-out: Visual Growth Reduction (%) 14 Days After Application HELAN
# [8] = VIOTR: wild pansy (Viola tricolor), read-out: Visual Growth Reduction (%) 14 Days After Application VIOTR
# [9] = CYPES: yellow nutsedge (Cyperus esculentus), read-out: Visual Growth Reduction (%) 14 Days After Application, CYPES
# [10] = DIGSA: crabgrass (Digitaria sanguinalis), read-out: Visual Growth Reduction (%) 14 Days After Application, DIGSA
# [11] = ECHCG: barnyardgrass (Echinochloa crus-galli), read-out: Visual Growth Reduction (%) 14 Days After Application, ECHCG
# [12] = ORYSA: rice (Oryza sativa), read-out: Visual Growth Reduction (%) 14 Days After Application, ORYSA
# [13] = SETFA: giant foxtail (Setaria faberi), read-out: Visual Growth Reduction (%) 14 Days After Application, SETFA
# [14] = SORVU: grain sorghum (Sorghum vulgare), read-out: Visual Growth Reduction (%) 14 Days After Application, SORVU
# [15] = TRZSS (wheat, Triticum aestivum), read-out: Visual Growth Reduction (%) 14 Days After Application, TRZSS
# [16] = ZEAMX: maize, corn (Zea mays), read-out: Visual Growth Reduction (%) 14 Days After Application, ZEAMX
# [17] = AMARE: redroot pigweed (Amaranthus retroflexus), read-out: Visual Growth Reduction (%) 14 Days After Application AMARE
# [18] = Triticum aestivum, TRZSS (wheat), read-out: Visual Growth Reduction (%) 14 Days After Application, TRZSS
melting point [°C],Structure (SMILES),"pest or weed control at 140 g/ha [1, 3] [%]","pest or weed control at 140 g/ha [1, 4] [%]","pest or weed control at 140 g/ha [1, 5] [%]","pest or weed control at 140 g/ha [1, 6] [%]","pest or weed control at 140 g/ha [1, 7] [%]","pest or weed control at 140 g/ha [1, 8] [%]","pest or weed control at 140 g/ha [2, 9] [%]","pest or weed control at 140 g/ha [2, 10] [%]","pest or weed control at 140 g/ha [2, 11] [%]","pest or weed control at 140 g/ha [2, 12] [%]","pest or weed control at 140 g/ha [2, 13] [%]","pest or weed control at 140 g/ha [2, 14] [%]","pest or weed control at 140 g/ha [2, 16] [%]","pest or weed control at 140 g/ha [1, 17] [%]","pest or weed control at 140 g/ha [2, 18] [%]",further results
130 to 132,"C#Cc1ccc(-c2nc(C(=O)OC)c(Cl)c(N)c2C)cc1F [Compound 151, methyl 4-amino-3-chloro-6-(4-ethynyl-3-fluorophenyl)-5-methylpicolinate]",95 to 100,85 to 94,95 to 100,0 to 29,85 to 94,0 to 29,75 to 84,0 to 29,45 to 59,0 to 29,60 to 74,60 to 74,75 to 84,,,"pest or weed control at 70 g/ha [1, 3]: 95 to 100%; pest or weed control at 70 g/ha [1, 4]: 75 to 84%; pest or weed control at 70 g/ha [1, 5]: 95 to 100%; pest or weed control at 70 g/ha [1, 6]: 0 to 29%; pest or weed control at 70 g/ha [1, 7]: 85 to 94%; pest or weed control at 70 g/ha [1, 8]: 0 to 29%; pest or weed control at 70 g/ha [2, 9]: 0 to 29%; pest or weed control at 70 g/ha [2, 10]: 0 to 29%; pest or weed control at 70 g/ha [2, 11]: 0 to 29%; pest or weed control at 70 g/ha [2, 12]: 0 to 29%; pest or weed control at 70 g/ha [2, 13]: 0 to 29%; pest or weed control at 70 g/ha [2, 14]: 60 to 74%; pest or weed control at 70 g/ha [2, 15]: 0 to 29%; pest or weed control at 140 g/ha [2, 15]: 0 to 29%; pest or weed control at 70 g/ha [2, 16]: 60 to 74%"
160.9 to 162.6,C#Cc1ccc(-c2nc(C(=O)O)c(Cl)c(N)c2Cl)cc1 [Compound 153],95 to 100,95 to 100,95 to 100,0 to 29,95 to 100,0 to 29,45 to 59,45 to 59,0 to 29,0 to 29,75 to 84,0 to 29,60 to 74,95 to 100,60 to 74,
148.2 to 150.9,C#Cc1ccc(-c2nc(N)c(OC)c(C(=O)OC)n2)cc1 [Compound 166],0 to 29,0 to 29,60 to 74,95 to 100,85 to 94,0 to 29,45 to 59,0 to 29,0 to 29,0 to 29,0 to 29,0 to 29,45 to 59,95 to 100,0 to 29,
178.9 to 180.2,COC(=O)c1nc(-c2ccc(OC(F)(F)F)cc2)c(Cl)c(N)c1Cl [Compound 170],0 to 29,0 to 29,60 to 74,0 to 29,85 to 94,0 to 29,0 to 29,0 to 29,0 to 29,0 to 29,0 to 29,0 to 29,0 to 29,0 to 29,0 to 29,
